In patent publication EP0021685A1:
Converted amounts (≈) assume the structure as drawn.

Tests used:
physchem = details: 66% aqueous dimethylformamide, pH 7.12
Histoplasma capsulatum = assay: microbe, parasite or virus in culture; format: cell-based
Candida albicans = assay: Disc-diffusion antifungal test; details: 6-mm pads dipped in solutions of test compound
Blastomyces dermatitidis = assay: Standard agar-dilution test; format: cell-based
[1] = tested on: Trichophyton mentagrophytes; assay: Disc-diffusion antifungal test; details: for zone of inhibition at 10000 µg/mL: read-out: Zone diameters (mm)
Neurospora crassa = assay: Disc-diffusion antifungal test; details: read-out: Zone diameters (mm)

Compound	pKa (physchem)	MIC (Histoplasma capsulatum) [µg/mL]	MIC (mcg/disc) (Candida albicans)	MIC (Blastomyces dermatitidis) [µg/mL]	MIC (mcg/disc) ([1]; disc-diffusion, 6-mm pads dipped in solutions of test compound)	zone of inhibition at 10000 µg/mL (Neurospora crassa) [mm]	zone of inhibition at 10000 µg/mL [1] [mm]
CCCCC/C=C\C/C=C\CCCCCCCC(=O)N[C@H]1C[C@@H](O)[C@@H](OC)NC(=O)[C@@H]2[C@@H](O)[C@@H](C)CN2C(=O)[C@H]([C@@H](C)O)NC(=O)[C@H]([C@H](O)[C@@H](O)c2ccc(O)cc2)NC(=O)[C@@H]2C[C@@H](O)CN2C(=O)[C@H]([C@@H](C)O)NC1=O	~12.9	100 (≈ 93.1 µM)	1.25	100 (≈ 93.1 µM)	0.078	–	–
CCCCC/C=C\C/C=C\CCCCCCCC(=O)N[C@H]1C[C@@H](O)[C@@H](OCCCCCC)NC(=O)[C@@H]2[C@@H](O)[C@@H](C)CN2C(=O)[C@H]([C@@H](C)O)NC(=O)[C@H]([C@H](O)[C@@H](O)c2ccc(O)cc2)NC(=O)[C@@H]2C[C@@H](O)CN2C(=O)[C@H]([C@@H](C)O)NC1=O [R = n-hexyl]	–	–	–	–	–	25	35
CCCCC/C=C\C/C=C\CCCCCCCC(=O)N[C@H]1C[C@@H](O)[C@@H](OCCC)NC(=O)[C@@H]2[C@@H](O)[C@@H](C)CN2C(=O)[C@H]([C@@H](C)O)NC(=O)[C@H]([C@H](O)[C@@H](O)c2ccc(O)cc2)NC(=O)[C@@H]2C[C@@H](O)CN2C(=O)[C@H]([C@@H](C)O)NC1=O [R = n-propyl]	–	–	–	–	–	20	35
